According to patent US20260315461A1, “NEW 5H-PYRROLO[3,2-B:5,4-C']DIPYRIDINE DERIVATIVES AND 6,7,8,9-TETRAHYDRO-5H-PYRROLO[3,2-B:5,4-C']DIPYRIDINE USEFUL IN THE TREATMENT OF CANCER” (INSTITUT REGIONAL DU CANCER DE MONTPELLIER, priority 2023, published 2026):
Structures can show the parent of a compound that is named as a salt.

Tests used:
Chromatin-MDM2 = target: T1, Chromatin-MDM2 (Homo sapiens, UniProt Q00987); assay: MDM2 degradation by western blot and immunofluorescence, chromatin-bound MDM2 (IB111 cells dependent on C-MDM2); format: cell-based; conditions: IB111 (presence of C-MDM2), degradation efficacy; for Dmax: human
T1 construct: endogenous in cells; host or cells: IB111
Method: (§1) MDM2 degradation is measured by western blot and immunofluorescence.
(§2) Cells were seeded in 6-well plates (Sarsted) in complete DMEM medium as to obtain triplicates for each condition (500 000 cells/well). After 24 hours, the compounds were added to the cells. Then, 18 hours later cells were collected for western blotting or immunofluorescence. • Western Blot: Cells were collected in Laemmli buffer, boiled and analyzed in 8% acrylamide gel. • Immunofluorescence: Cancer cells were fixed with paraformaldehyde (PFA) 4% for 15 minutes then permeabilized for 15 minutes at RT with phosphate-buffered saline (PBS) Triton 0.1% and blocked with Phosphate buffered saline-[…] (PBS-BSA) 0.3% for 1 hour at RT before overnight incubation at 4° C. with an anti-mouse monoclonal antibody against MDM2 (MABE340 Millipore). Immunodetection was performed using an Alexa 488-conjugated anti-mouse IgG antibody (Thermo Fisher) for 45 minutes at RT. Cover glasses were mounted with Mowiol (Biovalley) and DAPI (Sigma) before analysis on a Zeiss apotome.

Hpac/ZR75.1 cells = assay: Cell survival, Sulforhodamine B assay (SRB assay), cancer cells not exhibiting recruitment of MDM2 to chromatin; format: cell-based
Method: (§3) Cell survival after MDM2 inhibitor treatment (IC50) was determined using the Sulforhodamine B assay (SRB assay).
(§4) Cells were seeded in 96-well plates (Sarsted) in complete DMEM medium as to obtain triplicates for each condition (5 000 cells/well). After 24 hours, serial dilutions of the indicated compounds were added to the cells. Then 48 hours later, cells were fixed by adding a 10% Trichloroacetic acid solution and stained with a 0,4% SRB solution in 1% acetic acid. Fixed SRB was finally dissolved in 10 mM Tris-HCl solution and 560 nm absorbance was read using a PHERAstar FSX plate reader.

Cytoplasmic-MDM2 = target: T2, Cytoplasmic-MDM2 (Homo sapiens, UniProt Q00987); assay: MDM2 degradation by western blot and immunofluorescence, cytoplasmic MDM2 (Hpac/ZR75.1 cells, absence of C-MDM2); format: cell-based; conditions: Hpac/ZR75.1 (absence of C-MDM2), degradation efficacy; for Dmax: human
T2 construct: endogenous in cells; host or cells: Hpac/ZR75.1
Method: as §1, §2

liposarcoma cells IB111 = assay: In vivo anti-tumor efficacy in nude mice engrafted with liposarcoma cells IB111; conditions: 20 mg/kg i.p. daily for 3 weeks, from tumor 100 mm^3
Method: In order to support the in vitro results, in vivo evaluation of the anti-tumor efficacy was performed on compound (4) according to the present invention having evidenced the antitumoral activity in examples 9 and 10 above.
10 mice per group were engrafted with liposarcoma cells IB111. Mice were housed in a pathogen-free barrier facility in accordance with the regional ethics committee for animal [COMPOUND LEFT OUT] (n° CEEA-LR-12067). When tumor reached 100 mm^3, the compound of formula (I) was administered by intra peritoneal i.p. injection at the dose of 20 mg/kg daily for 3 weeks.

IB111 cells = assay: Cell survival, Sulforhodamine B assay (SRB assay), cancer cells exhibiting recruitment of MDM2 to chromatin; format: cell-based
Method: as §3, §4

MDM2 protein = conditions: WO2016/049453 and Wang et al. 2014; cited from earlier work
MDM2-p53 interaction = conditions: WO2016/049453 and Wang et al. 2014; cited from earlier work
[1] = tested on: p53 wild type, p53 mutant and p53 null cancer cells; conditions: cited from earlier work

T1 sequence (Q00987 whole entry): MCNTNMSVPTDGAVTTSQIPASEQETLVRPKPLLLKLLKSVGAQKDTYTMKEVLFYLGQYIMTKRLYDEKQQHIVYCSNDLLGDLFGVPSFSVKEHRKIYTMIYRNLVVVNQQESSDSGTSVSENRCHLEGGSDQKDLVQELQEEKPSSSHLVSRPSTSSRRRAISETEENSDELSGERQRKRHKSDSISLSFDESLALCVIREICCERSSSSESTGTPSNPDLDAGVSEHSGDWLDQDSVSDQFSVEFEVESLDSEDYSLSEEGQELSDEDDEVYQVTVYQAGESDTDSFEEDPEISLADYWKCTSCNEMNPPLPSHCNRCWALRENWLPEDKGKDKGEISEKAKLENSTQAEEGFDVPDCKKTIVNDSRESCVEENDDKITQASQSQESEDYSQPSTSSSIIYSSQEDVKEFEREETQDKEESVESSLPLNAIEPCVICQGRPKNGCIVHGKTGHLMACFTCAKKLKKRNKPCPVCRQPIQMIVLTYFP
T2 sequence (Q00987 whole entry): as above

SMILES: COc1ccc2[nH]c3c(-c4cccc5ccccc45)nccc3c2n1 [Compound 1, 2-methoxy-6-(naphthalen-1-yl)-5H-pyrrolo[3,2-b:5,4-c′]dipyridine]
- Chromatin-MDM2 degradation (Chromatin-MDM2): +++ (+++≥80%)
- efficacy on cancer cells not exhibiting recruitment of MDM2 to chromatin (cell survival) (Hpac/ZR75.1 cells): not efficient

SMILES: COc1ccc2[nH]c3c(-c4ccnc5nccnc45)nccc3c2n1 [Compound 3, 2-methoxy-6-(pyrido[2,3-b]pyrazin-8-yl)-5H-pyrrolo[3,2-b:5,4-c′]dipyridine]
- Dmax (Chromatin-MDM2): 25 to 40%
- Dmax (Cytoplasmic-MDM2): < 25%

SMILES: COc1ccc2[nH]c3c(-c4cccc5ccccc45)nccc3c2n1.Cl [Compound 4, 2-methoxy-6-(naphthalen-1-yl)-5H-pyrrolo[3,2-b:5,4-c′]dipyridine hydrochloride]
- Chromatin-MDM2 degradation (Chromatin-MDM2): +++ (+++≥80%)
- Cytoplasmic-MDM2 degradation (Cytoplasmic-MDM2): − (<25%: no degradation: indicated“−” in the table)
- efficacy on cancer cells not exhibiting recruitment of MDM2 to chromatin (cell survival) (Hpac/ZR75.1 cells): not efficient
- tumor reduction (liposarcoma cells IB111): greater than 75%

SMILES: COc1ccc2[nH]c3c(-c4ccnc5ccccc45)nccc3c2n1 [Compound 6, 2-methoxy-6-(quinolin-4-yl)-5H-pyrrolo[3,2-b:5,4-c′]dipyridine]
- Dmax (Chromatin-MDM2): 25 to 40%
- Dmax (Cytoplasmic-MDM2): < 25%

SMILES: COc1ccc2[nH]c3c(-c4cccc5ccccc45)nccc3c2n1.O=C(O)/C=C/C(=O)O [Compound 10, 2-methoxy-6-(naphthalen-1-yl)-5H-pyrrolo[3,2-b:5,4-c′]dipyridine fumarate]
- Chromatin-MDM2 degradation (Chromatin-MDM2): +++ (+++≥80%)
- Cytoplasmic-MDM2 degradation (Cytoplasmic-MDM2): − (<25%: no degradation: indicated“−” in the table)
- efficacy on cancer cells not exhibiting recruitment of MDM2 to chromatin (cell survival) (Hpac/ZR75.1 cells): not efficient

SMILES: COc1ccc2[nH]c3c(-c4cccc5ccccc45)nccc3c2n1.O=C(O)CC(O)(CC(=O)O)C(=O)O [Compound 11, 2-methoxy-6-(naphthalen-1-yl)-5H-pyrrolo[3,2-b:5,4-c′]dipyridine 2-hydroxypropane-1,2,3-tricarboxylate]
- Chromatin-MDM2 degradation (Chromatin-MDM2): +++ (+++≥80%)
- Dmax (Cytoplasmic-MDM2): < 25%
- efficacy on cancer cells not exhibiting recruitment of MDM2 to chromatin (cell survival) (Hpac/ZR75.1 cells): not efficient

SMILES: COc1ccc2[nH]c3c(-c4cccc5ccccc45)nccc3c2n1.O=P(O)(O)O [Compound 12, 2-methoxy-6-(naphthalen-1-yl)-5H-pyrrolo[3,2-b:5,4-c′]dipyridine phosphate]
- Cytoplasmic-MDM2 degradation (Cytoplasmic-MDM2): − (<25%: no degradation: indicated“−” in the table)
- efficacy on cancer cells not exhibiting recruitment of MDM2 to chromatin (cell survival) (Hpac/ZR75.1 cells): not efficient

SMILES: COc1ccc2[nH]c3c(-c4cccc5ccccc45)nccc3c2n1 [Compound 13, 2-methoxy-6-(naphthalen-1-yl)-5H-pyrrolo[3,2-b:5,4-c′]dipyridine sulfate]
- Chromatin-MDM2 degradation (Chromatin-MDM2; sulfate): ++ (40%≤++<80%)
- Cytoplasmic-MDM2 degradation (Cytoplasmic-MDM2): − (<25%: no degradation: indicated“−” in the table)

SMILES: COc1ccc2[nH]c3c(-c4cccc5c4CCCC5)nccc3c2n1 [Compound 14, 2-methoxy-6-(5,6,7,8-tetrahydronaphthalen-1-yl)-5H-pyrrolo[3,2-b:5,4-c′]dipyridine]
- Dmax (Chromatin-MDM2): ≥ 80%
- Dmax (Cytoplasmic-MDM2): < 25%
- efficacy on cancer cells not exhibiting recruitment of MDM2 to chromatin (cell survival) (Hpac/ZR75.1 cells): not efficient

SMILES: COc1ccc2[nH]c3c(-c4ccc(F)c5ccccc45)nccc3c2n1 [Compound 15, 6-(4-fluoronaphthalen-1-yl)-2-methoxy-5H-pyrrolo[3,2-b:5,4-c′]dipyridine]
- Dmax (Chromatin-MDM2): 40 to 80%
- Dmax (Cytoplasmic-MDM2): < 25%
- efficacy on cancer cells not exhibiting recruitment of MDM2 to chromatin (cell survival) (Hpac/ZR75.1 cells): not efficient

SMILES: COc1ccc2[nH]c3c(-c4cccc5c4CCCC5)nccc3c2n1.Cl [Compound 16, 2-methoxy-6-(5,6,7,8-tetrahydronaphthalen-1-yl)-5H-pyrrolo[3,2-b:5,4-c′]dipyridine hydrochloride]
- Chromatin-MDM2 degradation (Chromatin-MDM2): +++ (+++≥80%)
- Cytoplasmic-MDM2 degradation (Cytoplasmic-MDM2): − (<25%: no degradation: indicated“−” in the table)
- efficacy on cancer cells not exhibiting recruitment of MDM2 to chromatin (cell survival) (Hpac/ZR75.1 cells): not efficient

SMILES: COc1ccc2[nH]c3c(-c4ccc(F)c5ccccc45)nccc3c2n1.Cl [Compound 17, 6-(4-fluoronaphthalen-1-yl)-2-methoxy-5H-pyrrolo[3,2-b:5,4-c′]dipyridine hydrochloride]
- Cytoplasmic-MDM2 degradation (Cytoplasmic-MDM2): − (<25%: no degradation: indicated“−” in the table)

SMILES: Clc1ccc2[nH]c3c(-c4cccc5ccccc45)nccc3c2n1 [Compound 18, 2-chloro-6-(naphthalen-1-yl)-5H-pyrrolo[3,2-b:5,4-c′]dipyridine]
- Dmax (Chromatin-MDM2): 25 to 40%
- Dmax (Cytoplasmic-MDM2): < 25%

SMILES: Cl.Clc1ccc2[nH]c3c(-c4cccc5ccccc45)nccc3c2n1 [Compound 19, 2-chloro-6-(naphthalen-1-yl)-5H-pyrrolo[3,2-b:5,4-c′]dipyridine hydrochloride]
- Chromatin-MDM2 degradation (Chromatin-MDM2): ++ (40%≤++<80%)
- Cytoplasmic-MDM2 degradation (Cytoplasmic-MDM2): − (<25%: no degradation: indicated“−” in the table)
- IC50 (IB111 cells): < 500 nM
- efficacy on cancer cells not exhibiting recruitment of MDM2 to chromatin (cell survival) (Hpac/ZR75.1 cells): not efficient

SMILES: COc1ccc2[nH]c3c(-c4cc(F)cc5ccccc45)nccc3c2n1.Cl [Compound 20, 6-(3-fluoronaphthalen-1-yl)-2-methoxy-5H-pyrrolo[3,2-b:5,4-c′]dipyridine hydrochloride]
- Dmax (Chromatin-MDM2): 40 to 80%
- Dmax (Cytoplasmic-MDM2): < 25%
- IC50 (IB111 cells): < 500 nM
- efficacy on cancer cells not exhibiting recruitment of MDM2 to chromatin (cell survival) (Hpac/ZR75.1 cells): not efficient

SMILES: COc1ccc2[nH]c3c(-c4cccc5c(F)cccc45)nccc3c2n1 [Compound 21, 6-(5-fluoronaphthalen-1-yl)-2-methoxy-5H-pyrrolo[3,2-b:5,4-c′]dipyridine]
- Dmax (Chromatin-MDM2): 25 to 40%
- Dmax (Cytoplasmic-MDM2): < 25%

SMILES: COc1ccc2[nH]c3c(-c4cccc5c(F)cccc45)nccc3c2n1.Cl [Compound 22, 6-(5-fluoronaphthalen-1-yl)-2-methoxy-5H-pyrrolo[3,2-b:5,4-c′]dipyridine hydrochloride]
- Chromatin-MDM2 degradation (Chromatin-MDM2): + (25%≤+<40%)
- Cytoplasmic-MDM2 degradation (Cytoplasmic-MDM2): − (<25%: no degradation: indicated“−” in the table)

SMILES: COc1ccc2[nH]c3c(-c4cccc5cccc(F)c45)nccc3c2n1 [Compound 23, 6-(8-fluoronaphthalen-1-yl)-2-methoxy-5H-pyrrolo[3,2-b:5,4-c′]dipyridine hydrochloride]
- Dmax (Chromatin-MDM2): 25 to 40%
- Dmax (Cytoplasmic-MDM2): < 25%

SMILES: c1ccc2c(-c3nccc4c3[nH]c3ccc(OC5CC5)nc34)cccc2c1 [Compound 24, 2-cyclopropoxy-6-(naphthalen-1-yl)-5H-pyrrolo[3,2-b:5,4-c′]dipyridine]
- Dmax (Chromatin-MDM2): ≥ 80%
- Dmax (Cytoplasmic-MDM2): < 25%
- IC50 (IB111 cells): < 500 nM
- efficacy on cancer cells not exhibiting recruitment of MDM2 to chromatin (cell survival) (Hpac/ZR75.1 cells): not efficient

SMILES: Cl.c1ccc2c(-c3nccc4c3[nH]c3ccc(OC5CC5)nc34)cccc2c1 [Compound 25, 2-cyclopropoxy-6-(naphthalen-1-yl)-5H-pyrrolo[3,2-b:5,4-c′]dipyridine hydrochloride]
- Chromatin-MDM2 degradation (Chromatin-MDM2): +++ (+++≥80%)
- Cytoplasmic-MDM2 degradation (Cytoplasmic-MDM2): − (<25%: no degradation: indicated“−” in the table)
- efficacy on cancer cells not exhibiting recruitment of MDM2 to chromatin (cell survival) (Hpac/ZR75.1 cells): not efficient

SMILES: COc1ccc2[nH]c3c(-c4cccc5ccccc45)nccc3c2c1 [SP-141]
- binding to MDM2 protein (MDM2 protein): directly binding to MDM2 protein
- inhibition of the MDM2-p53 interaction (MDM2-p53 interaction): inhibiting the MDM2-p53 interaction
- anticancer activity [1]: able to exert anticancer activity in p53 wild type, p53 mutant and p53 null cancer cells
